# Literature values as cited in patent US20260191683A1, “SUSTAINED RELEASE OCULAR IMPLANTS” (University of Tennessee Research Foundation, priority 2023, published 2026).
# Conditions: high permeability
compound,measurement,value
"CC(C)C[C@H](CN)CC(=O)O [PRG, pregabalin]",BCS class,BCS class I drug
